According to US12599136B2, “Substituted isophthalic acid diamides and their use as herbicides” (Bayer Aktiengesellschaft, priority 2020, dated 2026):

Columns and labels:
Assay type in all cases: in vivo
[1] = system: Viola tricolor; test: Post-emergence herbicidal action against VIOTR
Procedure, shortened: (§1)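 Sandy loam, greenhouse; treatment 2–3 weeks after sowing, one-leaf stage. Aqueous suspension or emulsion from WP/EC sprayed on foliage (600–800 l/ha, 0.2% wetting agent). Readout: visual % action, ~3 weeks.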

[2] = system: Lolium rigidum; test: Pre-emergence herbicidal action against LOLRI
Procedure, shortened: (§2)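 Seeds sown in sandy loam, soil-covered; compound sprayed on soil surface pre-emergence. Application: WP/EC, 600–800 l/ha, 0.2% wetting agent. Readout: visual % damage at 3 weeks.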

[3] = system: Stellaria media; test: Pre-emergence herbicidal action against STEME
From the text: (§3) Seeds of monocotyledonous and dicotyledonous weed plants and crop plants are laid out in sandy loam soil in wood-fiber pots and covered with soil. The compounds of the invention, formulated in the form of wettable powders (WP) or as emulsion concentrates (EC), are then applied to the surface of the covering soil in the form of an aqueous suspension or emulsion at a water application rate equivalent to 600 to 800 l/ha, with addition of 0.2% wetting agent. After the treatment, the pots are placed in a greenhouse and kept under good growth conditions for the trial plants. The damage to the test plants is scored visually after a test period of 3 weeks by comparison with untreated controls (herbicidal activity in percent (%): 100% activity=the plants have died, 0% activity=like control plants). […] The tables below illustrate, in an illustrative manner, the post-emergence herbicidal action of the compounds of the invention, the herbicidal activity being stated in percent.

[4] = system: Veronica persica; test: Post-emergence herbicidal action against VERPE; details: visual assessment about 3 weeks after treatment
Procedure, shortened: as §1

[5] = system: Alopecurus myosuroides; test: Pre-emergence herbicidal action against ALOMY; details: visual score after 3 weeks vs untreated controls
Procedure, shortened: as §2

[6] = system: Stellaria media; test: Post-emergence herbicidal action against STEME; details: visual assessment about 3 weeks after treatment
Experimental: Seeds of monocotyledonous and dicotyledonous weed and crop plants are laid out in sandy loam soil in wood-fiber pots, covered with soil and cultivated in a greenhouse under good growth conditions. 2 to 3 weeks after sowing, the test plants are treated at the one-leaf stage. The compounds of the invention, formulated in the form of wettable powders (WP) or as emulsion concentrates (EC), are then sprayed onto the green parts of the plants in the form of an aqueous suspension or emulsion at a water application rate equivalent to 600 to 800 l/ha, with addition of 0.2% wetting agent. After the test plants have been left to stand in the greenhouse under optimal growth conditions for about 3 weeks, the action of the preparations is assessed visually in comparison to untreated controls (herbicidal action in percent (%): 100% activity=the plants have died, 0% activity=like control plants). […] The tables below illustrate, in an illustrative manner, the post-emergence herbicidal action of the compounds of the invention, the herbicidal activity being stated in percent.

[7] = system: Veronica persica; test: Pre-emergence herbicidal action against VERPE
Procedure, shortened: as §2

[8] = system: Setaria viridis; test: Pre-emergence herbicidal action against SETVI
Procedure, shortened: as §2

[9] = system: Setaria viridis; test: Post-emergence herbicidal action against SETVI; details: visual assessment about 3 weeks after treatment
Procedure, shortened: as §1

[10] = system: Abutilon theophrasti; test: Post-emergence herbicidal action against ABUTH
Procedure, shortened: as §1

[11] = system: Cyperus esculentus; test: Pre-emergence herbicidal action against CYPES; details: visual score after 3 weeks vs untreated controls
From the text: as §3

[12] = system: Pharbitis purpurea; test: Post-emergence herbicidal action against PHBPU; details: visual assessment about 3 weeks after treatment
Procedure, shortened: as §1

[13] = system: Amaranthus retroflexus; test: Pre-emergence herbicidal action against AMARE; details: visual score after 3 weeks vs untreated controls
Procedure, shortened: as §2

[14] = system: Viola tricolor; test: Pre-emergence herbicidal action against VIOTR
Procedure, shortened: as §2

[15] = system: Pharbitis purpurea; test: Pre-emergence herbicidal action against PHBPU; details: visual score after 3 weeks vs untreated controls
From the text: as §3

[16] = system: Avena fatua; test: Post-emergence herbicidal action against AVEFA; details: visual assessment about 3 weeks after treatment
Procedure, shortened: as §1

[17] = system: Echinochloa crus-galli; test: Pre-emergence herbicidal action against ECHCG; details: visual score after 3 weeks vs untreated controls
Procedure, shortened: as §2

[18] = system: Avena fatua; test: Pre-emergence herbicidal action against AVEFA; details: visual score after 3 weeks vs untreated controls
Procedure, shortened: as §2

[19] = system: Matricaria inodora; test: Pre-emergence herbicidal action against MATIN; details: visual score after 3 weeks vs untreated controls
Procedure, shortened: as §2

[20] = system: Alopecurus myosuroides; test: Post-emergence herbicidal action against ALOMY
Procedure, shortened: as §1

[21] = system: Amaranthus retroflexus; test: Post-emergence herbicidal action against AMARE; details: visual assessment about 3 weeks after treatment
Procedure, shortened: as §1

[22] = system: Echinochloa crus-galli; test: Post-emergence herbicidal action against ECHCG; details: visual assessment about 3 weeks after treatment
Procedure, shortened: as §1

[23] = system: Matricaria inodora; test: Post-emergence herbicidal action against MATIN; details: visual assessment about 3 weeks after treatment
Procedure, shortened: as §1

[24] = system: Abutilon theophrasti; test: Pre-emergence herbicidal action against ABUTH; details: visual score after 3 weeks vs untreated controls
Procedure, shortened: as §2

[25] = system: Polygonum convolvulus; test: Pre-emergence herbicidal action against POLCO; details: 80 g/ha
Procedure, shortened: as §2

[26] = system: Digitaria sanguinalis; test: Post-emergence herbicidal action against DIGSA
Procedure, shortened: as §1

SMILES: CCCn1nnnc1NC(=O)c1ccc(C(F)(F)F)c(C(=O)N(C)CC2CC2)c1Cl [Example 3-126]
- Post-emergence action against VIOTR in % ([1]; 5 g/ha): 80%
- Post-emergence action against VIOTR in % ([1]; 20 g/ha): 90%
- Post-emergence action against VIOTR in % ([1]; 80 g/ha): 100%
- Pre-emergence action against LOLRI ([2]; 320 g/ha): 80%
- Pre-emergence action against STEME ([3]; 20 g/ha): 80%
- Pre-emergence action against STEME ([3]; 80 g/ha): 80%
- Pre-emergence action against STEME ([3]; 320 g/ha): 100%
- Post-emergence action against VERPE in % ([4]; 80 g/ha): 90%
- Pre-emergence action against ALOMY ([5]; 320 g/ha): 90%
- Post-emergence action against STEME in % ([6]; 5 g/ha): 100%
- Post-emergence action against STEME in % ([6]; 20 g/ha): 100%
- Post-emergence action against STEME in % ([6]; 80 g/ha): 100%
- Pre-emergence action against VERPE ([7]; 320 g/ha): 90%
- Pre-emergence action against SETVI ([8]; 80 g/ha): 80%
- Pre-emergence action against SETVI ([8]; 320 g/ha): 100%
- Post-emergence action against SETVI in % ([9]; 20 g/ha): 80%
- Post-emergence action against SETVI in % ([9]; 80 g/ha): 100%
- Post-emergence action against ABUTH ([10]; 5 g/ha): 100%
- Post-emergence action against ABUTH ([10]; 20 g/ha): 100%
- Post-emergence action against ABUTH ([10]; 80 g/ha): 100%
- Pre-emergence action against CYPES ([11]; 80 g/ha): 100%
- Pre-emergence action against CYPES ([11]; 320 g/ha): 100%
- Post-emergence action against PHBPU in % ([12]; 20 g/ha): 90%
- Post-emergence action against PHBPU in % ([12]; 80 g/ha): 100%
- Pre-emergence action against AMARE ([13]; 20 g/ha): 90%
- Pre-emergence action against AMARE ([13]; 80 g/ha): 100%
- Pre-emergence action against AMARE ([13]; 320 g/ha): 100%
- Pre-emergence action against VIOTR ([14]; 80 g/ha): 90%
- Pre-emergence action against VIOTR ([14]; 320 g/ha): 100%
- Pre-emergence action against PHBPU ([15]; 320 g/ha): 80%
- Post-emergence action against AVEFA in % ([16]; 20 g/ha): 90%
- Post-emergence action against AVEFA in % ([16]; 80 g/ha): 100%
- Pre-emergence action against ECHCG ([17]; 320 g/ha): 80%
- Pre-emergence action against AVEFA ([18]; 320 g/ha): 100%
- Pre-emergence action against MATIN ([19]; 80 g/ha): 90%
- Pre-emergence action against MATIN ([19]; 320 g/ha): 100%
- Post-emergence action against ALOMY ([20]; 80 g/ha): 80%
- Post-emergence action against AMARE in % ([21]; 5 g/ha): 100%
- Post-emergence action against AMARE in % ([21]; 20 g/ha): 100%
- Post-emergence action against AMARE in % ([21]; 80 g/ha): 100%
- Post-emergence action against ECHCG in % ([22]; 5 g/ha): 90%
- Post-emergence action against ECHCG in % ([22]; 20 g/ha): 100%
- Post-emergence action against ECHCG in % ([22]; 80 g/ha): 100%
- Post-emergence action against MATIN in % ([23]; 5 g/ha): 80%
- Post-emergence action against MATIN in % ([23]; 20 g/ha): 90%
- Post-emergence action against MATIN in % ([23]; 80 g/ha): 100%
- Pre-emergence action against ABUTH ([24]; 20 g/ha): 100%
- Pre-emergence action against ABUTH ([24]; 80 g/ha): 100%
- Pre-emergence action against ABUTH ([24]; Dosage column 320 g/ha (heading prints 3200 g/ha)): 100%

SMILES: CCN(CC)C(=O)c1c(C(F)F)ccc(C(=O)Nc2nnnn2C)c1Cl [Example 1-166]
- Post-emergence action against VIOTR in % ([1]; 20 g/ha): 80%
- Pre-emergence action against LOLRI ([2]; 80 g/ha): 80%
- Pre-emergence action against POLCO [25]: 80%
- Post-emergence action against VERPE in % ([4]; 20 g/ha): 80%
- Pre-emergence action against ALOMY ([5]; 80 g/ha): 90%
- Pre-emergence action against VERPE ([7]; 80 g/ha): 100%
- Pre-emergence action against SETVI ([8]; 80 g/ha): 100%
- Post-emergence action against SETVI in % ([9]; 5 g/ha): 80%
- Post-emergence action against SETVI in % ([9]; 20 g/ha): 100%
- Post-emergence action against ABUTH ([10]; 5 g/ha): 80%
- Post-emergence action against ABUTH ([10]; 20 g/ha): 90%
- Post-emergence action against PHBPU in % ([12]; 5 g/ha): 90%
- Post-emergence action against PHBPU in % ([12]; 20 g/ha): 90%
- Pre-emergence action against AMARE ([13]; 20 g/ha): 100%
- Pre-emergence action against AMARE ([13]; 80 g/ha): 100%
- Pre-emergence action against VIOTR ([14]; 80 g/ha): 100%
- Pre-emergence action against PHBPU ([15]; 80 g/ha): 90%
- Post-emergence action against AVEFA in % ([16]; 20 g/ha): 80%
- Pre-emergence action against ECHCG ([17]; 80 g/ha): 100%
- Pre-emergence action against AVEFA ([18]; 80 g/ha): 90%
- Post-emergence action against DIGSA in % ([26]; 5 g/ha): 90%
- Post-emergence action against DIGSA in % ([26]; 20 g/ha): 90%
- Pre-emergence action against MATIN ([19]; 20 g/ha): 90%
- Pre-emergence action against MATIN ([19]; 80 g/ha): 90%
- Post-emergence action against ALOMY ([20]; 5 g/ha): 80%
- Post-emergence action against ALOMY ([20]; 20 g/ha): 80%
- Post-emergence action against AMARE in % ([21]; 5 g/ha): 100%
- Post-emergence action against AMARE in % ([21]; 20 g/ha): 100%
- Post-emergence action against MATIN in % ([23]; 5 g/ha): 80%
- Post-emergence action against MATIN in % ([23]; 20 g/ha): 90%
- Pre-emergence action against ABUTH ([24]; 20 g/ha): 100%
- Pre-emergence action against ABUTH ([24]; 80 g/ha): 100%
